Columns and labels:
[1] = test system: caspases in HeLa and THP-1 cells; assay: Caspase inhibition across cell culture assays; assay type: cell-based, human; details: NSAIDs up to 500 μM
caspase-3 [2] = target: T1, caspase-3 (Homo sapiens, UniProt P42574); assay: Caspase-3 tryptophan fluorescence quenching; assay type: binding
T1 sequence (P42574 29-175 limits assumed): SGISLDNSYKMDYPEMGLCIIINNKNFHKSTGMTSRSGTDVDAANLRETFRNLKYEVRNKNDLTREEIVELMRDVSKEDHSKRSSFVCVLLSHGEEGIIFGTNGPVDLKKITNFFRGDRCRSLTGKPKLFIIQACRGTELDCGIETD
T1 sequence (P42574 176-277 limits assumed): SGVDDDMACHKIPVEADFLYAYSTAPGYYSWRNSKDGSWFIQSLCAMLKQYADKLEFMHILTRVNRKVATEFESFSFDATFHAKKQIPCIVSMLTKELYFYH

caspase-5 = target: T2, caspase-5 (Homo sapiens, UniProt P51878); assay: Caspase catalytic activity IC50 determination, caspase-5; assay type: biochemical; details: 20 nM enzyme, 10 μM LEHD substrate, tested 26.1 nM to 66 μM
T2 sequence (P51878 137-327 limits assumed): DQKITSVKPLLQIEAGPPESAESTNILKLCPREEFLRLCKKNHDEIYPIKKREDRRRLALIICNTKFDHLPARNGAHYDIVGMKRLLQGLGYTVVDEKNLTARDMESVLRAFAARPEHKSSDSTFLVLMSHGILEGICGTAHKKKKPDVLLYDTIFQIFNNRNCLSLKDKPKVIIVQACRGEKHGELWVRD
T2 sequence (P51878 347-434 limits assumed): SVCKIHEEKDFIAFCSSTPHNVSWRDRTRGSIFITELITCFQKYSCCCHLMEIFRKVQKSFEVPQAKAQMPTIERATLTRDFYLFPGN

caspase-4 = target: T3, caspase-4 (Homo sapiens, UniProt P49662); assay: Caspase catalytic activity IC50 determination, caspase-4; assay type: biochemical; details: 1 nM enzyme, 10 μM LEHD substrate, tested 26.1 nM to 66 μM
T3 sequence (P49662 81-270 limits assumed): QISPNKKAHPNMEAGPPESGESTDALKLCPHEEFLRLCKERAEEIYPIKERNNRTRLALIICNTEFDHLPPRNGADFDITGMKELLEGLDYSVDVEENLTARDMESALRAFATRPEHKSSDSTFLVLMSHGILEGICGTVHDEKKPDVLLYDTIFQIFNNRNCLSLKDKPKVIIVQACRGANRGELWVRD
T3 sequence (P49662 290-377 limits assumed): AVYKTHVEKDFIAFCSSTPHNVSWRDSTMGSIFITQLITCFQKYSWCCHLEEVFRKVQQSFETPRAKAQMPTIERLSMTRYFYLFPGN

caspase-1 = target: T4, caspase-1 (Homo sapiens, UniProt P29466); assay: Caspase catalytic activity IC50 determination, caspase-1; assay type: biochemical; details: 2.5 nM enzyme, 6.5 μM WEHD substrate, tested 26.1 nM to 66 μM
T4 sequence (P29466 120-297 limits assumed): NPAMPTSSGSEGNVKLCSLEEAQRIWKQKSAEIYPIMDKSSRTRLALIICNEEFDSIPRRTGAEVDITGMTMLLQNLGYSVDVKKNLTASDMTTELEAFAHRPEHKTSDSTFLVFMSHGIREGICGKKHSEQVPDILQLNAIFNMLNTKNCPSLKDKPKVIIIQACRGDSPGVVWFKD
T4 sequence (P29466 317-404 limits assumed): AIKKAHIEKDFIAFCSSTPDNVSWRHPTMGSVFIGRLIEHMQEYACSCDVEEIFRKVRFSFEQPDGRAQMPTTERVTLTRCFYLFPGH

caspase-3 [3] = target: T1, caspase-3; assay: Caspase catalytic activity IC50 determination, caspase-3; assay type: biochemical; details: 200 nM enzyme, 3.3 μM DEVD substrate, tested 26.1 nM to 66 μM
caspase-9 = target: T5, caspase-9 (Homo sapiens, UniProt P55211); assay: Caspase catalytic activity IC50 determination, caspase-9; assay type: biochemical; details: 200 nM enzyme, 6.5 μM LEHD substrate, tested 26.1 nM to 66 μM
T5 sequence (P55211 1-315 limits assumed): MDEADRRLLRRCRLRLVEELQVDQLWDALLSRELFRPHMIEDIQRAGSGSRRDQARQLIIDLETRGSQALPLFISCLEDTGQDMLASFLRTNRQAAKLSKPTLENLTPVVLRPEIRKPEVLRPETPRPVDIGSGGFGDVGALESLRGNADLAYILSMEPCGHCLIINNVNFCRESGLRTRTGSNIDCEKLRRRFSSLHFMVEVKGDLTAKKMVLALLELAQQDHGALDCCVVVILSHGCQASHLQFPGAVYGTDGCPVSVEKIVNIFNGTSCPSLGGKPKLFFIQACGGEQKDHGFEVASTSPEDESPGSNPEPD
T5 sequence (P55211 331-416 limits assumed): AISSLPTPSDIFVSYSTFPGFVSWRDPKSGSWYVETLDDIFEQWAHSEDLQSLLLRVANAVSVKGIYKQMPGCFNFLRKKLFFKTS

Row | Compound | caspase inhibitory capability, rank order across cellular assays [1] | Kd (caspase-3 [2]) [µM] | IC50 (caspase-5) | IC50 (caspase-4) | IC50 (caspase-1) | IC50 (caspase-3 [3]) | IC50 (caspase-9)
1 | CC(C(=O)O)c1ccc(N2Cc3ccccc3C2=O)cc1 (stereo not shown) [Indoprofen] | substantial inhibitory capabilities | 30 ± 2 |  |  |  |  | 
2 | O=C(O)CCC(=O)c1ccc(-c2ccccc2)cc1 [Fenbufen] | substantial inhibitory capabilities |  |  |  |  |  | 
3 | COc1ccc2cc([C@H](C)C(=O)O)ccc2c1 [Naproxen] | weak inhibitors |  |  |  |  |  | 
4 | CC(=O)Oc1ccccc1C(=O)O [Aspirin] | ineffective | 1290 ± 10 | No activity | No activity | No activity | No activity | No activity
5 | CC(C)Cc1ccc(C(C)C(=O)O)cc1 (stereo not shown) [Ibuprofen] | weak inhibitors |  |  |  | No activity |  | 

From article PMC5357154 (Cell chemical biology, 2017)
